# Measurements taken from US9938322B2, “β-hairpin peptidomimetics” (priority 2013, dated 2018).
# Where a SMILES comes first, the peptide text is derived from it. [ ]: non-standard residue; d: D form. Phe(4-CF3) = N[C@@H](Cc1ccc(C(F)(F)F)cc1)C(=O)O; Tyr(3-F) = N[C@@H](Cc1ccc(O)c(F)c1)C(=O)O; Chg = N[C@H](C(=O)O)C1CCCCC1; Phg = N[C@H](C(=O)O)c1ccccc1; Tle = CC(C)(C)[C@H](N)C(=O)O; dDab = NCC[C@@H](N)C(=O)O; Orn = NCCC[C@H](N)C(=O)O; Dab = NCC[C@H](N)C(=O)O; Nva = CCC[C@H](N)C(=O)O; Dap = NC[C@H](N)C(=O)O
# Tested on: human red blood cells (hRBC)
# Experiment: Hemolysis of human red blood cells
# Assay type: cell-based
# Conditions: red cells of human, 1 h, 100
# Method in brief: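 Washed fresh human erythrocytes (20% v/v, about 0.9×10^9 cells/ml final) incubated with peptide at 100 μg/ml for 1 h at 37° C with shaking. Supernatant OD540 read; hemolysis expressed relative to 2.5% Triton X-100 (100%) and PBS with 0.001% acetic acid (0%).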
row,SMILES,Hemolysis at 100 μg/ml
1,CC(C)C[C@@H]1NC(=O)[C@@H]2CCCN2C(=O)[C@H]2CCCN2C(=O)[C@H](CO)NC(=O)[C@H](C)NC(=O)[C@H](C(C)(C)C)NC(=O)[C@H](CN)NC(=O)[C@H](Cc2c[nH]c3ccccc23)NC(=O)[C@H](CCN)NC(=O)[C@@H](CCN)NC(=O)[C@H](CCCN)NC(=O)[C@H](CCN)NC(=O)[C@H](Cc2ccc(O)cc2)NC(=O)[C@H](CO)NC1=O [compound 101] (cyclo(LSY[Dab][Orn][dDab][Dab]W[Dap][Tle]AS[dP]P)),1%
2,CC(C)C[C@@H]1NC(=O)[C@@H]2CCCN2C(=O)[C@H]2CCCN2C(=O)[C@H](CO)NC(=O)[C@H](C)NC(=O)[C@H](C(C)(C)C)NC(=O)[C@H](CCN)NC(=O)[C@H](Cc2c[nH]c3ccccc23)NC(=O)[C@H](CCCNC(=N)N)NC(=O)[C@@H](CCN)NC(=O)[C@H](CCCN)NC(=O)[C@H](CCN)NC(=O)[C@H](Cc2ccc(O)cc2)NC(=O)[C@H](CO)NC1=O [compound 102] (cyclo(LSY[Dab][Orn][dDab]RW[Dab][Tle]AS[dP]P)),0%
3,CCC[C@@H]1NC(=O)[C@@H]2CCCN2C(=O)[C@H]2CCCN2C(=O)[C@H](CO)NC(=O)[C@H](C)NC(=O)[C@H](C(C)(C)C)NC(=O)[C@H](CCN)NC(=O)[C@H](Cc2c[nH]c3ccccc23)NC(=O)[C@H](CCN)NC(=O)[C@@H](CCN)NC(=O)[C@H](CCCN)NC(=O)[C@H](CCN)NC(=O)[C@H](Cc2ccc(O)c(F)c2)NC(=O)[C@H](CO)NC1=O [compound 105] (cyclo([Nva]S[Tyr(3-F)][Dab][Orn][dDab][Dab]W[Dab][Tle]AS[dP]P)),1%
4,CCC[C@@H]1NC(=O)[C@@H]2CCCN2C(=O)[C@H]2CCCN2C(=O)[C@H](CO)NC(=O)[C@H](C)NC(=O)[C@H](C(C)(C)C)NC(=O)[C@H](CCN)NC(=O)[C@H](Cc2c[nH]c3ccccc23)NC(=O)[C@H](CCN)NC(=O)[C@@H](CCN)NC(=O)[C@H](CCCN)NC(=O)[C@H](CCN)NC(=O)[C@H](Cc2ccc(C(F)(F)F)cc2)NC(=O)[C@H](CO)NC1=O [compound 106] (cyclo([Nva]S[Phe(4-CF3)][Dab][Orn][dDab][Dab]W[Dab][Tle]AS[dP]P)),2%
5,CC(C)C[C@@H]1NC(=O)[C@@H]2CCCN2C(=O)[C@H]2CCCN2C(=O)[C@H](CO)NC(=O)[C@H](C)NC(=O)[C@H](c2ccccc2)NC(=O)[C@H](CCN)NC(=O)[C@H](Cc2c[nH]c3ccccc23)NC(=O)[C@H](CCN)NC(=O)[C@@H](CCN)NC(=O)[C@H](CCCN)NC(=O)[C@H](CCN)NC(=O)[C@H](Cc2ccc(O)cc2)NC(=O)[C@H](CO)NC1=O [compound 107] (cyclo(LSY[Dab][Orn][dDab][Dab]W[Dab][Phg]AS[dP]P)),2%
6,CC(C)C[C@@H]1NC(=O)[C@@H]2CCCN2C(=O)[C@H]2CCCN2C(=O)[C@H](CO)NC(=O)[C@H](C)NC(=O)[C@H](Cc2c[nH]c3ccccc23)NC(=O)[C@H](CCN)NC(=O)[C@H](Cc2c[nH]c3ccccc23)NC(=O)[C@H](CCN)NC(=O)[C@@H](CCN)NC(=O)[C@H](CCCCN)NC(=O)[C@H](CCN)NC(=O)[C@H](Cc2ccc(O)cc2)NC(=O)[C@H](CO)NC1=O [compound 108] (cyclo(LSY[Dab]K[dDab][Dab]W[Dab]WAS[dP]P)),1%
7,CC(C)C[C@@H]1NC(=O)[C@@H]2CCCN2C(=O)[C@H]2CCCN2C(=O)[C@H](CO)NC(=O)[C@H](C)NC(=O)[C@H](Cc2c[nH]c3ccccc23)NC(=O)[C@H](CCN)NC(=O)[C@H](Cc2c[nH]c3ccccc23)NC(=O)[C@H](CCN)NC(=O)[C@@H](CCN)NC(=O)[C@H](CCCN)NC(=O)[C@H](CCN)NC(=O)[C@H](Cc2c[nH]c3ccccc23)NC(=O)[C@H](CO)NC1=O [compound 109] (cyclo(LSW[Dab][Orn][dDab][Dab]W[Dab]WAS[dP]P)),2%
8,CC[C@H](C)[C@@H]1NC(=O)[C@@H]2CCCN2C(=O)[C@H]2CCCN2C(=O)[C@H](CO)NC(=O)[C@H](C)NC(=O)[C@H](Cc2c[nH]c3ccccc23)NC(=O)[C@H](CCN)NC(=O)[C@H](Cc2c[nH]c3ccccc23)NC(=O)[C@H](CCN)NC(=O)[C@@H](CCN)NC(=O)[C@H](CCCN)NC(=O)[C@H](CCN)NC(=O)[C@H](Cc2ccc(O)cc2)NC(=O)[C@H](CO)NC1=O [compound 110] (cyclo(ISY[Dab][Orn][dDab][Dab]W[Dab]WAS[dP]P)),1%
9,CC(C)C[C@@H]1NC(=O)[C@@H]2CCCN2C(=O)[C@H]2CCCN2C(=O)[C@H](CO)NC(=O)[C@H](CO)NC(=O)[C@H](Cc2c[nH]c3ccccc23)NC(=O)[C@H](CCN)NC(=O)[C@H](Cc2c[nH]c3ccccc23)NC(=O)[C@H](CCN)NC(=O)[C@@H](CCN)NC(=O)[C@H](CCCN)NC(=O)[C@H](CCN)NC(=O)[C@H](Cc2ccc(O)cc2)NC(=O)[C@H](CO)NC1=O [compound 111] (cyclo(LSY[Dab][Orn][dDab][Dab]W[Dab]WSS[dP]P)),1%
10,CC(C)C[C@@H]1NC(=O)[C@@H]2CCCN2C(=O)[C@H]2CCCN2C(=O)[C@H](CO)NC(=O)[C@H](Cc2ccc(O)cc2)NC(=O)[C@H](C(C)(C)C)NC(=O)[C@H](CCN)NC(=O)[C@H](Cc2c[nH]c3ccccc23)NC(=O)[C@H](CCN)NC(=O)[C@@H](CCN)NC(=O)[C@H](CCCN)NC(=O)[C@H](CCN)NC(=O)[C@H](Cc2ccc(O)cc2)NC(=O)[C@H](CC(=O)O)NC1=O [compound 112] (cyclo(LDY[Dab][Orn][dDab][Dab]W[Dab][Tle]YS[dP]P)),0%
11,CC(C)C[C@@H]1NC(=O)[C@@H]2CCCN2C(=O)[C@H]2CCCN2C(=O)[C@H](CO)NC(=O)[C@H](Cc2ccc(O)cc2)NC(=O)[C@H](C(C)(C)C)NC(=O)[C@H](CCN)NC(=O)[C@H](Cc2c[nH]c3ccccc23)NC(=O)[C@H](CCN)NC(=O)[C@@H](CCN)NC(=O)[C@H](CCCN)NC(=O)[C@H](CCN)NC(=O)[C@H](Cc2ccc(O)cc2)NC(=O)[C@H]([C@@H](C)O)NC1=O [compound 113] (cyclo(LTY[Dab][Orn][dDab][Dab]W[Dab][Tle]YS[dP]P)),0%
12,CC(C)C[C@@H]1NC(=O)[C@@H]2CCCN2C(=O)[C@H]2CCCN2C(=O)[C@H](CO)NC(=O)[C@H](CCN)NC(=O)[C@H](C(C)(C)C)NC(=O)[C@H](CCN)NC(=O)[C@H](Cc2c[nH]c3ccccc23)NC(=O)[C@H](CCN)NC(=O)[C@@H](CCN)NC(=O)[C@H](CCCN)NC(=O)[C@H](CCN)NC(=O)[C@H](Cc2ccc(O)cc2)NC(=O)[C@H](CC(=O)O)NC1=O [compound 114] (cyclo(LDY[Dab][Orn][dDab][Dab]W[Dab][Tle][Dab]S[dP]P)),0.5%
13,CC(C)C[C@@H]1NC(=O)[C@@H]2CCCN2C(=O)[C@H]2CCCN2C(=O)[C@H](CO)NC(=O)[C@H](CCN)NC(=O)[C@H](C(C)(C)C)NC(=O)[C@H](CCN)NC(=O)[C@H](Cc2c[nH]c3ccccc23)NC(=O)[C@H](CCN)NC(=O)[C@@H](CCN)NC(=O)[C@H](CCCN)NC(=O)[C@H](CCN)NC(=O)[C@H](Cc2ccc(O)cc2)NC(=O)[C@H]([C@@H](C)O)NC1=O [compound 115] (cyclo(LTY[Dab][Orn][dDab][Dab]W[Dab][Tle][Dab]S[dP]P)),0%
14,CC(C)C[C@@H]1NC(=O)[C@@H]2CCCN2C(=O)[C@H]2CCCN2C(=O)[C@H](CO)NC(=O)[C@H](CO)NC(=O)[C@H](C2CCCCC2)NC(=O)[C@H](CCN)NC(=O)[C@H](Cc2c[nH]c3ccccc23)NC(=O)[C@H](CCN)NC(=O)[C@@H](CCN)NC(=O)[C@H](CCCN)NC(=O)[C@H](CCN)NC(=O)[C@H](Cc2ccc(O)cc2)NC(=O)[C@H](CO)NC1=O [compound 116] (cyclo(LSY[Dab][Orn][dDab][Dab]W[Dab][Chg]SS[dP]P)),3%
15,CC(C)C[C@@H]1NC(=O)[C@@H]2CCCN2C(=O)[C@H]2CCCN2C(=O)[C@H](CO)NC(=O)[C@H](CO)NC(=O)[C@H](C(C)(C)C)NC(=O)[C@H](CCN)NC(=O)[C@H](Cc2c[nH]c3ccccc23)NC(=O)[C@H](CCN)NC(=O)[C@@H](CCN)NC(=O)[C@H](CCCN)NC(=O)[C@H](CCN)NC(=O)[C@H](Cc2ccc(O)cc2)NC(=O)[C@H](CO)NC1=O [compound 117] (cyclo(LSY[Dab][Orn][dDab][Dab]W[Dab][Tle]SS[dP]P)),3%
16,CCC[C@@H]1NC(=O)[C@@H]2CCCN2C(=O)[C@H]2CCCN2C(=O)[C@H](CO)NC(=O)[C@H](CO)NC(=O)[C@H](C(C)(C)C)NC(=O)[C@H](CCN)NC(=O)[C@H](Cc2c[nH]c3ccccc23)NC(=O)[C@H](CCN)NC(=O)[C@@H](CCN)NC(=O)[C@H](CCCN)NC(=O)[C@H](CCN)NC(=O)[C@H](Cc2ccc(O)cc2)NC(=O)[C@H](CO)NC1=O [compound 118] (cyclo([Nva]SY[Dab][Orn][dDab][Dab]W[Dab][Tle]SS[dP]P)),1%
17,CC(C)C[C@@H]1NC(=O)[C@@H]2CCCN2C(=O)[C@H]2CCCN2C(=O)[C@H](CO)NC(=O)[C@H](CC(N)=O)NC(=O)[C@H](C(C)(C)C)NC(=O)[C@H](CCN)NC(=O)[C@H](Cc2c[nH]c3ccccc23)NC(=O)[C@H](CCN)NC(=O)[C@@H](CCN)NC(=O)[C@H](CCCN)NC(=O)[C@H](CCN)NC(=O)[C@H](Cc2ccc(O)cc2)NC(=O)[C@H]([C@@H](C)O)NC1=O [compound 119] (cyclo(LTY[Dab][Orn][dDab][Dab]W[Dab][Tle]NS[dP]P)),1%
18,CC(C)C[C@@H]1NC(=O)[C@@H]2CCCN2C(=O)[C@H]2CCCN2C(=O)[C@H](CO)NC(=O)[C@H]([C@@H](C)O)NC(=O)[C@H](C(C)(C)C)NC(=O)[C@H](CCN)NC(=O)[C@H](Cc2c[nH]c3ccccc23)NC(=O)[C@H](CCN)NC(=O)[C@@H](CCN)NC(=O)[C@H](CCCN)NC(=O)[C@H](CCN)NC(=O)[C@H](Cc2ccc(O)cc2)NC(=O)[C@H](CC(N)=O)NC1=O [compound 120] (cyclo(LNY[Dab][Orn][dDab][Dab]W[Dab][Tle]TS[dP]P)),0%
19,CC(C)C[C@@H]1NC(=O)[C@@H]2CCCN2C(=O)[C@H]2CCCN2C(=O)[C@H](CO)NC(=O)[C@H](CC(N)=O)NC(=O)[C@H](C(C)(C)C)NC(=O)[C@H](CCN)NC(=O)[C@H](Cc2c[nH]c3ccccc23)NC(=O)[C@H](CCN)NC(=O)[C@@H](CCN)NC(=O)[C@H](CCCN)NC(=O)[C@H](CCN)NC(=O)[C@H](Cc2ccc(O)cc2)NC(=O)[C@H](CC(N)=O)NC1=O [compound 121] (cyclo(LNY[Dab][Orn][dDab][Dab]W[Dab][Tle]NS[dP]P)),0%
